Measured values: publication PMC10423561, “Effects of the CYP3A inhibitors, voriconazole, itraconazole, and fluconazole on the pharmacokinetics of osimertinib in rats” (PeerJ, 2023)
“And” between values parts separate entries of the source, which are not always exact repeats. Equal entries are not always repeated. Where two headings read alike, the source gives them in different places.

Experiment: Pharmacokinetic study of OSIM in rats, alone or after voriconazole, itraconazole or fluconazole pretreatment (plasma concentration by HPLC-MS/MS)
Format: in vivo, Sprague-Dawley rats
Set-up: Conc. (plasma): unit not given here
Conditions: for Conc. (plasma): individual rats; for AUC(0-inf) / AUC(0-t) / CL/F / Cmax / Tmax / Vd/F / half-life / MRT inf: male, Sprague-Dawley, rat, plasma, po, 10 mg/kg; for Vd/F: read-out: Vz/F; for MRT inf: read-out: MRT0–inf
Description: A liquid chromatography with tandem mass spectrometry (HPLC-MS/MS) system coupled to a JasperTM HPLC and Triple […] and equipped with an electrospray ionization (ESI) interface source (AB Sciex, Redwood City, CA, USA) was used for the analysis. […] Waters Corp., Milford, MA, USA) maintained at 45 °C. Mobile phase A was 0.2% formic acid in water, and mobile phase B was acetonitrile. […] Carry-over was minimized with methanol-acetonitrile-isopropanol-water solution (1:1:1:1, v/v/v/v) before and after the injection procedure. […] Subsequently, all samples were vortex-mixed for 30 s and were centrifuged at 14,000 × g for 10 min. Finally, each sample was reconstituted with an aliquot of mobile phase A. The sample was transferred to a 0.8 mL 96-well plate, of which 5 μL was injected into HPLC-MS/MS system for analysis. Twenty-four adult male Sprague-Dawley rats (220 ± 20 g) with specific pathogen free were supplied by the Laboratory Animal Center of Zhejiang Provincial People's Hospital. […] The study was performed in accordance with the Animal Care and Use Committee of Zhejiang Provincial People's Hospital (number: […], and FCZ were prepared in 0.3% carboxymethyl cellulose sodium (CMC-Na). After 12 h of fasting and free water consumption, the rats were randomly separated into four groups, and the sample size was based on a similar study using as few rats as possible (n = 6): control (equivalent volume of 0.3% CMC-Na), VCZ (20 mg/kg), ICZ (20 mg/kg), and FCZ (20 mg/kg) groups. Only those responsible for treatment management researchers know this group well. Each group was housed in a single cage. The rats in the four groups were orally dosed once daily with 0.3% CMC-Na, VCZ, ICZ, or FCZ, respectively; they reached steady-state exposure after five continuous days of dosing. […] All rats received an oral gavage dose of approximately equivalent volume treatment regimens (one mL). Rats were restrained on the rat fixator on the laboratory bench. […] Experimental data were given as mean ± standard deviation (SD). The mean concentration levels of OSIM versus time profile were drawn using GraphPad Prism 9.4 (GraphPad Software, Inc., San Diego, CA, USA). […] SPSS 26.0 was used for statistical analysis (IBM, Armonk, USA). Significant differences among the groups were identified using one-way ANOVA and Tukey test. P < 0.05 was considered significant.

[1] = ICZ group vs control, rats, P < 0.05
[2] = OSIM 10 mg/kg oral after fluconazole 20 mg/kg oral once daily for 5 days, rats, n = 6
[3] = OSIM 10 mg/kg oral after voriconazole 20 mg/kg oral once daily for 5 days, rats, n = 6
[4] = co-administered with itraconazole vs control, rats
[5] = co-administration with VCZ vs OSIM alone, rats
[6] = co-administration with fluconazole vs control, rats
[7] = OSIM 10 mg/kg oral after itraconazole 20 mg/kg oral once daily for 5 days, rats, n = 6
[8] = OSIM 10 mg/kg oral, control (0.3% CMC-Na), rats, n = 6, mean ± SD

For `C=CC(=O)Nc1cc(Nc2nccc(-c3cn(C)c4ccccc34)n2)c(OC)cc1N(C)CCN(C)C` [OSIM, Osimertinib], the “Conc. (plasma)” value (Con group (OSIM alone), Time 0.25) was 8.0671 and 11.9979, the “Conc. (plasma)” value (Con group (OSIM alone), Time 0.5) was 12.1988 and 19.9452 and the “Conc. (plasma)” value (Con group (OSIM alone), Time 1) was 26.2008 and 25.1352. The “Conc. (plasma)” value (Con group (OSIM alone), Time 2) was 34.4763 and 31.6327, the “Conc. (plasma)” value (Con group (OSIM alone), Time 4) was 32.976 and 28.9864 and the “Conc. (plasma)” value (Con group (OSIM alone), Time 5) was 24.2861 and 21.3664. The “Conc. (plasma)” value (Con group (OSIM alone), Time 6) was 16.055 and 19.5716 and 16.4633, the “Conc. (plasma)” value (Con group (OSIM alone), Time 8) was 9.5939 and 12.9324 and 12.4752 and the “Conc. (plasma)” value (Con group (OSIM alone), Time 12) was 3.1238 and 5.2228 and 5.1031. The “Conc. (plasma)” value (Con group (OSIM alone), Time 24) was 0.3493 and 0.667, the “Conc. (plasma)” value (Con group (OSIM alone), Time 48) was 0.1948 and 0.7004 and the “AUC0–t of OSIM enhanced by” value (FCZ group vs control, rats) was ~1.01 fold. The “Cmax of OSIM enhanced by” value (FCZ group vs control, rats) was “approximately 0.53 fold”, the “reduction of Cl/F of OSIM” value (FCZ group vs control, rats) was 49.49% and the “reduction of Vz/F of OSIM” value (FCZ group vs control, rats) was 55.89%. The “Conc. (plasma)” value (Flu group (fluconazole pretreatment), Time 0.25) was 7.8097 and 15.8697, the “Conc. (plasma)” value (Flu group (fluconazole pretreatment), Time 0.5) was 11.781 and 29.3217 and the “Conc. (plasma)” value (Flu group (fluconazole pretreatment), Time 1) was 19.1216. For the same compound, the “Conc. (plasma)” value (Flu group (fluconazole pretreatment), Time 2) was 33.0063 and 43.3299, the “Conc. (plasma)” value (Flu group (fluconazole pretreatment), Time 3) was 39.5899 and 53.0362 and the “Conc. (plasma)” value (Flu group (fluconazole pretreatment), Time 4) was 43.6983 and 40.9109. For the same compound, the “Conc. (plasma)” value (Flu group (fluconazole pretreatment), Time 5) was 33.9054 and 36.7921, the “Conc. (plasma)” value (Flu group (fluconazole pretreatment), Time 6) was 33.9688 and the “Conc. (plasma)” value (Flu group (fluconazole pretreatment), Time 8) was 18.8994 and 29.246 and 22.772. The “Conc. (plasma)” value (Flu group (fluconazole pretreatment), Time 12) was 8.5799 and 18.5501 and 14.3797, the “Conc. (plasma)” value (Flu group (fluconazole pretreatment), Time 24) was 1.2033 and 2.0928 and 2.1757 and the “Conc. (plasma)” value (Flu group (fluconazole pretreatment), Time 48) was 0.3201 and 0.2978. For the same compound, the “decrease in Vz/F of OSIM” value [1] was 38.08%, the “decrease in t1/2 of OSIM” value [1] was 25.41% and the “Conc. (plasma)” value (Itr group (itraconazole pretreatment), Time 0.25) was 5.2753 and 10.1717. For the same compound, the “Conc. (plasma)” value (Itr group (itraconazole pretreatment), Time 0.5) was 2.137 and 22.1484, the “Conc. (plasma)” value (Itr group (itraconazole pretreatment), Time 1) was 14.402 and 30.439 and the “Conc. (plasma)” value (Itr group (itraconazole pretreatment), Time 2) was 19.1571 and 37.1482. The “Conc. (plasma)” value (Itr group (itraconazole pretreatment), Time 3) was 31.5023, the “Conc. (plasma)” value (Itr group (itraconazole pretreatment), Time 4) was 27.9801 and the “Conc. (plasma)” value (Itr group (itraconazole pretreatment), Time 5) was 22.7144 and 26.9275. For the same compound, the “Conc. (plasma)” value (Itr group (itraconazole pretreatment), Time 6) was 27.5418 and 15.763 and 19.3207, the “Conc. (plasma)” value (Itr group (itraconazole pretreatment), Time 8) was 24.0911 and 10.4766 and 13.0808 and the “Conc. (plasma)” value (Itr group (itraconazole pretreatment), Time 12) was 4.7714 and 7.383. The “Conc. (plasma)” value (Itr group (itraconazole pretreatment), Time 24) was 1.7983 and 0.7083 and 1.0943, the “Conc. (plasma)” value (Itr group (itraconazole pretreatment), Time 48) was 0.2444 and 0.2377 and the “MRT0–inf” value [2] was 8.32 ± 0.47 h. For the same compound, the t1/2 [2] was 5.75 ± 0.25 h, the t1/2 [3] was 3.82 ± 0.34 h and the “decrease in Cl/F of OSIM” value (VCZ group vs control, rats) was 37.74%. For the same compound, the “decrease in Vz/F of OSIM” value (VCZ group vs control, rats) was 64.03%, the “decrease in t1/2 of OSIM” value (VCZ group vs control, rats) was 42.56% and the “other parameters (Cmax, Tmax, AUC, MRT, and Cl/F) compared with the control group” value (administration of OSIM with ICZ, rats) was “not significantly different”. For the same compound, the “increase in AUC0–t of OSIM” value [4] was 34.80%, the “increase in Cmax of OSIM” value [4] was 13.91% and the “effect on t1/2 and Tmax of orally administered OSIM” value (co-administration with FCZ vs control, rats) was “did not significantly alter”. The “increase in AUC0–t of OSIM” value [5] was 62.56%, the “increase in Cmax of OSIM” value [5] was 58.04% and the “increase in AUC0–t of OSIM” value [6] was 100.98%. The “increase in Cmax of OSIM” value [6] was 53.45%, the AUC(0-inf) [2] was 524 ± 92.4 ng·h/mL and the AUC(0-t) [2] was 521 ± 92.5 ng·h/mL. For the same compound, the CL/F [2] was 325 mL/min/kg, the Cmax [2] was 50.8 ± 8.41 ng/mL and the Tmax [2] was 3.17 ± 0.98 h. It also gave a Vd/F [2] of 162 ± 26.7 L/kg, an AUC(0-inf) [7] of 357 ± 99.7 ng·h/mL and an AUC(0-t) [7] of 350 ± 96.3 ng·h/mL. For the same compound, the CL/F [7] was 504 mL/min/kg, the Cmax [7] was 37.7 ± 11.5 ng/mL and the Tmax [7] was 3.83 ± 1.6 h. The half-life [7] was 4.96 ± 1.1 h, the MRT inf [7] was 7.51 ± 0.6 h and the Vd/F [7] was 228 ± 127 L/kg. The AUC(0-inf) [3] was 422 ± 57.9 ng·h/mL, the AUC(0-t) [3] was 422 ± 58.4 ng·h/mL and the CL/F [3] was 401 mL/min/kg. It also gave a Cmax [3] of 52.3 ± 10.5 ng/mL, a Tmax [3] of 2.83 ± 0.41 h and an MRT inf [3] of 6.83 ± 0.36 h. For the same compound, the Vd/F [3] was 132 ± 17.9 L/kg, the AUC(0-inf) [8] was 264 ± 34.4 ng·h/mL and the AUC(0-t) [8] was 259 ± 33.1 ng·h/mL. For the same compound, the CL/F [8] was 644 mL/min/kg, the Cmax [8] was 33.1 ± 3.66 ng/mL and the Tmax [8] was 2.33 ± 0.52 h. The half-life [8] was 6.65 ± 0.48 h, the MRT inf [8] was 7.61 ± 0.74 h and the Vd/F [8] was 368 ± 36.3 L/kg. The “Conc. (plasma)” value (vor group (voriconazole pretreatment), Time 0.25) was 7.2019 and 17.8367, the “Conc. (plasma)” value (vor group (voriconazole pretreatment), Time 0.5) was 35.8513 and the “Conc. (plasma)” value (vor group (voriconazole pretreatment), Time 1) was 38.47. The “Conc. (plasma)” value (vor group (voriconazole pretreatment), Time 2) was 40.5898 and 38.9958, the “Conc. (plasma)” value (vor group (voriconazole pretreatment), Time 3) was 68.6321 and 46.961 and the “Conc. (plasma)” value (vor group (voriconazole pretreatment), Time 4) was 35.6688 and 44.311. The “Conc. (plasma)” value (vor group (voriconazole pretreatment), Time 5) was 28.7864 and 35.6992, the “Conc. (plasma)” value (vor group (voriconazole pretreatment), Time 6) was 35.4312 and 22.8434 and 29.124 and the “Conc. (plasma)” value (vor group (voriconazole pretreatment), Time 8) was 20.9535 and 15.9897 and 16.5811. The “Conc. (plasma)” value (vor group (voriconazole pretreatment), Time 12) was 10.8434 and 7.3402 and 9.397, the “Conc. (plasma)” value (vor group (voriconazole pretreatment), Time 24) was 0.9533 and 0.6206 and the “Conc. (plasma)” value (vor group (voriconazole pretreatment), Time 48) was 0.0227 and 0.021.
